Key:
[1] = target: T1, PSMA-expressing LS174T cells (LS174T-PSMA) (Homo sapiens, UniProt Q04609); assay: Binding and internalization assay with 111In-labeled ligands; format: cell-based; conditions: 2 h 37 °C
T1 construct: expressed in transfected cells; host or cells: LS174T colon carcinoma cells (human), stably transfected with pcDNA3.1-hPSMA
Experimental: Cell lines were purchased from the American Type Culture Collection. LS174T colon carcinoma cells were stably transfected with human PSMA using the plasmid pcDNA3.1-hPSMA and cultured in RPMI 1640 medium supplemented with 2 mM glutamine, 10% FCS, and 0.3 mg/ml G418 at 37 °C in a humidified atmosphere with 5% CO2 [5].
Binding and internalization characteristics of all ligands were compared using LS174T-PSMA and wildtype LS174T cells. Cells were cultured to confluency in 6-wells plates followed by incubation at 37 °C for 2 h in 1 ml binding buffer (RPMI/0.5% BSA) with 50,000 counts per minute (cpm) of ^111In-labeled ligand (0.1-0.25 pmol/well). Nonspecific binding was determined by coincubation with 2-(phosphonomethyl)pentane-1,5-dioic acid (2-PMPA, 21.57 µM). PSMA-specific binding was defined as nonspecific binding subtracted from total binding. To retrieve the membrane-bound fraction, cells were washed with PBS twice and incubated with acid buffer (0.1 M acetic acid, 154 mM NaCl, pH 2.6) for 10 minutes at 0 °C. After incubation, the membrane bound fraction (in acid buffer) was collected, cells were washed, lysed with 0.1 M NaOH and cell lysis (intercellular activity) was collected. Membrane-bound activity and intercellular activity fractions were measured in a gamma-counter (2480 WIZARD^2 Automatic Gamma Counter, PerkinElmer), [25]. Human serum was used to determine the in vitro serum stability of the multimodal ligands (0.8 µg/ml serum, 5 MBq/μg labeling). After incubation for 2 h at 37°C, serum proteins were precipitated by adding a 1:1 (v/v) volume of acetonitrile followed by 5 min of centrifugation at 3220×g. Stability was evaluated by RP-HPLC analysis after 2 h of incubation at 37 °C. […] Experimental details are described in the supplementary materials and methods.

[2] = Lipophilicity, PBS/n-octanol; format: physicochemical; conditions: radiolabeled ligand
Experimental: Tubes were vortexed vigorously for 1 min and centrifuged for 5 min at 201×g for phase separation. The concentration of radioactivity in a defined volume of each layer was measured in a well-type gamma-counter.

[3] = tested on: LS174T-PSMA and LS174T xenografts; assay: Biodistribution of 111In-labeled multimodal ligands; format: in vivo, BALB/c nude mice; conditions: 0.3 nmol, 2 h p.i.
Experimental: Animal experiments were performed in 8-10 weeks old male BALB/c nude mice (Janvier). Animals were housed in individually ventilated cages (Blue line IVC, 4-5 mice per cage) under nonsterile standard conditions with cage enrichment present and free access to chlorophyll-free animal chow (Sniff GmbH) and water. Mice were subcutaneously inoculated with 3.0 x 10^6 LS174T-PSMA cells in the left flank and 1.5 × 10^6 LS174T cells in the right flank, diluted in 200 μL of complete RPMI 1640 medium. Eleven days after tumor cell inoculation when xenografts were approximately 0.1 cm^3, tracers were injected intravenously via the tail vein. The researchers were not blinded for the experimental groups and tumor-bearing mice were block-randomized into groups based on tumor size. All experiments were approved by the institutional Animal Welfare Committee of the Radboud university medical center and were conducted in accordance to the guidelines of the Revised Dutch Act on Animal Experimentation.
Mice were injected intravenously with 10 MBq ^111In-labeled PSMA ligands (0.3 nmol, molar activity 33.3 MBq/nmol) in PBS/0.5% BSA. Two hours post injection, mice were euthanized by CO2/O2-asphyxation and images were acquired with the IVIS fluorescence imaging system (Xenogen VivoVision IVIS Lumina II, Caliper Life Sciences), using an acquisition time of 10 s. Subsequently, µSPECT/CT images were acquired (U-SPECT II, MILabs) with a 1.0 mm diameter pinhole mouse collimator tube [26]. Mice were scanned for 30 min followed by a CT scan (spatial resolution 160 μm, 65 kV, 615 μA) for anatomical reference. µSPECT/CT scans were reconstructed with MILabs reconstruction software, using an ordered-subset expectation maximization algorithm, energy windows 154 - 188 keV and 220-270 keV, 3 iterations, 16 subsets, voxel size of 0.4 mm. SPECT/CT scans were analyzed and maximum intensity projections (MIPs) were created using the Inveon Research Workplace software version 4.1 (Siemens Preclinical Solutions). NIRF images were analyzed using Living Image software version 4.2 (Caliper Life Sciences). Tissues of interest were dissected, weighed and measured for radioactivity in a gamma-counter as described above. In the fluorescence-guided surgery feasibility study, pre-operative imaging was performed to visualize tumor tissue. After white light resection, NIRF imaging was repeated to assess if any remaining tumor was present.

T1 sequence (Q04609 whole entry): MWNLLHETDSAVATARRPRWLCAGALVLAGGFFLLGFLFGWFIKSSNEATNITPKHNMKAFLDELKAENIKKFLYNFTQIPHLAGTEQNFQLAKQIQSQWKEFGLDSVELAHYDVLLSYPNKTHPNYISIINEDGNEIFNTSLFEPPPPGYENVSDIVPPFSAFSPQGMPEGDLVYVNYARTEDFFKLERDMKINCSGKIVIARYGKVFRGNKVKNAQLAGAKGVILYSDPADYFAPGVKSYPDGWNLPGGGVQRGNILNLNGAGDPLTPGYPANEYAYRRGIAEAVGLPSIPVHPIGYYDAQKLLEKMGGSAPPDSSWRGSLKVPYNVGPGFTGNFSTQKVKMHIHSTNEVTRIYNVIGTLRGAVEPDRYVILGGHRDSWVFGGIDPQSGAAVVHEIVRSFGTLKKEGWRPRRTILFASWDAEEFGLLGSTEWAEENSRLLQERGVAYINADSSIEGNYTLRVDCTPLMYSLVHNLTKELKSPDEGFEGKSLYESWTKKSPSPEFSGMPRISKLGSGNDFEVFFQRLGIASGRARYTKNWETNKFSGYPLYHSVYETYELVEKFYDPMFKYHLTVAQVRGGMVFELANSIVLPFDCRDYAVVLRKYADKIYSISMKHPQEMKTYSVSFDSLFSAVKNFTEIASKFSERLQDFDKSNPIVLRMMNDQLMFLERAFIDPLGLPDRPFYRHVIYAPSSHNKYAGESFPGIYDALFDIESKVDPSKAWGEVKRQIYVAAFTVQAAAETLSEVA

Row | SMILES | Internalized fraction [1] | Membrane bound fraction [1] | LogD [2] | Adrenals [3] | Blood [3] | Bone [3] | Bone marrow [3] | Duodenum [3] | Heart [3] | Kidney [3] | Liver [3] | Lung [3] | Muscle [3] | Pancreas [3] | Prostate [3] | Salivary glands [3] | Spleen [3] | Stomach [3] | Tumor- LS174T [3] | Tumor/Blood ratio [3] | also measured
1 | C[Si](C)(CCC[N+](CCCS(=O)(=O)O)(CCCS(=O)(=O)O)CCCS(=O)(=O)O)O[Si-2]123(O[Si](C)(C)CCC[N+](CCCS(=O)(=O)O)(CCCS(=O)(=O)O)CCCS(=O)(=O)O)n4c5c6ccccc6c4N=C4c6cccc(OCCCOC(=O)NCCCCCC(=O)NCCCC[C@H](NC(=O)CCC(C(=O)O)N7CCN(CC(=O)O)CCN(CC(=O)O)CCN(CC(=O)O)CC7)C(=O)N[C@H](Cc7ccccc7)C(=O)NCCCCCC(=O)NCCCC[C@H](NC(=O)N[C@@H](CCC(=O)O)C(=O)O)C(=O)O)c6C(=[N+]41)N=c1c4ccccc4c(n12)=NC1=[N+]3C(=N5)c2ccccc21.[Na+].[Na+].[Na+].[Na+] (some centres unmarked) [N046] | 2.0 ± 0.39 | 0.8 ± 0.06 | -2.4 ± 0.03 | 1.2 %ID/g | 0.7 %ID/g | 0.4 %ID/g | 0.2 %ID/g | 0.3 %ID/g | 0.3 %ID/g | 31.9 %ID/g | 0.8 %ID/g | 0.4 %ID/g | 0.2 %ID/g | 0.2 %ID/g | 0.9 %ID/g | 0.4 %ID/g | 1.1 %ID/g | 0.3 %ID/g | 0.4 %ID/g | 14.9 | Tumor+ LS174T-PSMA [3]: 4.3 %ID/g; Tumor/Kidney ratio [3]: 0.2; Tumor/Liver ratio [3]: 6.1; Tumor/Muscle ratio [3]: 39.3; Tumor/Negative tumor ratio [3]: 10.8; Tumor/Prostate ratio [3]: 10.7; Tumor/Salivary gland ratio [3]: 12.5; Tumor/Spleen ratio [3]: 4.4 ± 1
2 | C[Si](C)(CCC[N+](CCCS(=O)(=O)O)(CCCS(=O)(=O)O)CCCS(=O)(=O)O)O[Si-2]123(O[Si](C)(C)CCC[N+](CCCS(=O)(=O)O)(CCCS(=O)(=O)O)CCCS(=O)(=O)O)n4c5c6ccccc6c4N=C4c6cccc(OCCCOC(=O)NCCCCCC(=O)NCCCC[C@H](NC(=O)[C@H](CCC(=O)O)NC(=O)CN7CCN(CC(=O)O)CCN(CC(=O)O)CCN(CC(=O)O)CC7)C(=O)N[C@H](Cc7ccccc7)C(=O)N[C@@H](CCC(=O)O)C(=O)N[C@@H](CCC(=O)O)C(=O)NCCCCCC(=O)NCCCC[C@H](NC(=O)N[C@@H](CCC(=O)O)C(=O)O)C(=O)O)c6C(=[N+]41)N=c1c4ccccc4c(n12)=NC1=[N+]3C(=N5)c2ccccc21.[Na+].[Na+].[Na+].[Na+] [N122] | 1.4 ± 0.20 | 0.6 ± 0.01 | -2.8 ± 0.06 | 1.7 %ID/g | 0.6 %ID/g | 0.7 %ID/g | 0.4 %ID/g | 0.4 %ID/g | 0.5 %ID/g | 72.5 %ID/g | 1 ± 0.2 %ID/g | 1 ± 0.3 %ID/g | 0.2 %ID/g | 0.3 %ID/g | 0.4 %ID/g | 0.5 %ID/g | 1.6 %ID/g | 0.4 %ID/g | 0.5 %ID/g | 13.9 | Tumor+ LS174T-PSMA [3]: 7.6 %ID/g; Tumor/Kidney ratio [3]: 0.2; Tumor/Liver ratio [3]: 8.1; Tumor/Muscle ratio [3]: 48.4; Tumor/Negative tumor ratio [3]: 17.8; Tumor/Prostate ratio [3]: 21.5; Tumor/Salivary gland ratio [3]: 18.6; Tumor/Spleen ratio [3]: 5.2
3 | C[Si](C)(CCC[N+](CCCS(=O)(=O)O)(CCCS(=O)(=O)O)CCCS(=O)(=O)O)O[Si-2]123(O[Si](C)(C)CCC[N+](CCCS(=O)(=O)O)(CCCS(=O)(=O)O)CCCS(=O)(=O)O)n4c5c6ccccc6c4N=C4c6cccc(OCCCOC(=O)NCCCCCC(=O)NCCCC[C@H](NC(=O)CCC(C(=O)O)N7CCN(CC(=O)O)CCN(CC(=O)O)CCN(CC(=O)O)CC7)C(=O)N[C@@H](CCC(=O)O)C(=O)N[C@@H](CCC(=O)O)C(=O)N[C@@H](CCC(=O)O)C(=O)NCCCCCC(=O)NCCCC[C@H](NC(=O)N[C@@H](CCC(=O)O)C(=O)O)C(=O)O)c6C(=[N+]41)N=c1c4ccccc4c(n12)=NC1=[N+]3C(=N5)c2ccccc21.[Na+].[Na+].[Na+].[Na+] (some centres unmarked) [N143] | 3.6 ± 0.22 | 0.5 ± 0.20 | -2.4 ± 0.10 | 2.5 %ID/g | 0.3 %ID/g | 1.2 %ID/g | 0.4 %ID/g | 0.6 %ID/g | 0.5 %ID/g | 112.8 %ID/g | 1 ± 0.2 %ID/g | 0.7 %ID/g | 0.3 %ID/g | 0.4 %ID/g | 1.4 %ID/g | 0.6 %ID/g | 3.1 ± 1 %ID/g | 0.5 %ID/g | 0.5 %ID/g | 56 | Tumor/Kidney ratio [3]: 0.2; Tumor/Liver ratio [3]: 15.2; Tumor/Muscle ratio [3]: 72.3; Tumor/Negative tumor ratio [3]: 36.7; Tumor/Prostate ratio [3]: 32.9; Tumor/Salivary gland ratio [3]: 28.8; Tumor/Spleen ratio [3]: 5.2

Source: publication PMC7778589, “Photosensitizer-based multimodal PSMA-targeting ligands for intraoperative detection of prostate cancer” (Theranostics, 2021)
